The term melting point denotes the temperature of the solid-liquid transition.

On to `CC(C)c1nn(-c2ccccn2)cc1CCCOc1ccccc1CC(=O)O`, for which the melting point was 140 to 142 °C. On to `CC(=O)Nc1ccccc1C=C1c2ccccc2CCc2ccccc21`, for which the melting point was found to be 190 °C. As to `CC(C)(C)OC(=O)NCCNC(=O)c1ncccc1Oc1cccc(Cl)c1`, the melting point fell in the range of 86 to 87 °C.

`NS(=O)(=O)c1cc(C(=O)O)cc([N+](=O)[O-])c1Oc1cccc(C(F)(F)F)c1` returned a melting point of 210 °C. Next, `COc1ccc(N2CCC(c3c(N)nc(N)[nH]c3=O)CC2)cc1`: 308 °C.

In turn, `Cc1cccc(OCC(O)CNCCOc2ccccc2)c1` (configuration not stated) gave a melting point of 81 to 82 °C.

In turn, `CC1(C)Oc2ccc(C#N)cc2[C@@H](NC(=O)c2ccc(C(F)(F)F)cc2)[C@@H]1O` (relative stereo) registered a melting point of 225 °C. Next, `COc1ccc2c(c1)c(-c1ccccc1)nc(=O)n2CC1CC1`: 114 to 115 °C; `CCCCCCCCCOC1C(O)C(CO)OC1n1cnc2c(=O)[nH]c(NC(=O)C(C)C)nc21` (configuration not stated): 168 to 169 °C; `O=C(NC(CCl)c1ccc(-c2ccc(SC(F)F)cc2)cc1)c1c(F)cccc1F` (configuration not stated): 146 to 147 °C. In turn, `CCOC(=O)c1cc2cccc(OCC(O)CCl)c2o1` (configuration not stated) showed a melting point of 95 to 97 °C. Molecule `Cc1c(-c2ccccc2)nn(C(C)(C)C(=O)N(C)C)c1C` returned a melting point of 115 to 117 °C. As for `CCOC1CCC(=O)N1S(=O)(=O)c1ccc(OC)cc1` (configuration not stated), the melting point lay in the range of 112 to 113 °C.

`O=C(O)c1ccc(-c2ccc3nnn(Cc4ccc5ncccc5c4)c3n2)cc1F` showed a melting point of 254 to 257 °C.

Molecule `COc1ccc(S(=O)(=O)N2C(=O)C(N)(c3ccccc3OC)c3cc(Cl)ccc32)c(OC)c1` (configuration not stated) came in with a melting point of 172 to 173 °C.

`Cc1cc(Nc2cc(Cl)nc(-c3ccccc3)n2)[nH]n1` registered a melting point of 235 to 236 °C. Next, `CCN(CC)C(=O)N1CCN(c2nc(-c3ccccc3)cs2)CC1`: 76 to 77 °C; `O=c1[nH]ncc2c1c(O)nc1cc(Cl)c(Cl)cc12`: over 350 °C; `COC(=O)c1cc(C(=O)c2cc(C(=O)OC)c(OC)c([N+](=O)[O-])c2)cc([N+](=O)[O-])c1OC`: 96 to 98 °C. In turn, `C=C(c1ccc(I)cc1)C(O)(Cn1cncn1)c1ccccc1F` (configuration not stated) yielded a melting point of 117 to 118 °C. The same measure for `Cn1c(OCC(F)(F)C(F)F)n[nH]c1=O`: 101 °C; for `O=C(CC(Cc1cccc2ccccc12)C(=O)O)NCCc1ccccc1` (configuration not stated): 131 to 135 °C; for `COc1c(C)cc(C(=O)c2cc(-c3ccc(Cl)cc3)c(N3CCOCC3)s2)nc1C`: 160 °C. In the case of `O=C(COc1ccc2ccccc2c1)NCc1ccc(C(=O)O)cc1`, the melting point was in the range of 188 to 189 °C. Next, `CC(C)(C)OC(=O)N1CCO[C@@H](c2ccc(C(N)=O)cc2)C1`: 179 °C.

`COc1nc2cc(Cl)ccc2nc1N1CCN(C)CC1`: the melting point fell in the range of 99.9 to 102 °C. Next, `CCOC(=O)c1c(-c2ccc(F)cc2)c2ccccc2[nH]c1=O`: 204 to 206 °C; `Nc1ccc2ccc(-c3ccc(Cl)c(Cl)c3)nc2n1`: 210 °C; `OC1CSC(Oc2cnc(-c3cccnc3)c(F)c2)C(O)C1O` (configuration not stated): 179 °C. The same measure for `Fc1ccc(N2CCN(Cc3cn4cc(C(F)(F)F)cc(Cl)c4n3)CC2)cc1`: 91 to 97 °C. Next, `FC(F)(F)COc1cc(-c2cc(C(F)(F)F)n3cnc(-c4ccncc4)c3n2)ccc1C(F)(F)F`: 233 °C; `CCN1CC(C)Oc2cccc3nc4c(c1c23)CCCC4` (configuration not stated): 101 to 103 °C. With `O=c1[nH]c(F)c(Cl)c(Cl)c1Cl`, the melting point was 172 to 176 °C. `CCCCCCCCCCCCCCCCCCOc1ccc2c(c1)C(=O)c1ccc(OCCCCCCCCCCCCCCCCCC)cc1C2=O`: the melting point lay within 112 to 122 °C. The same measure for `COC(=O)c1cc(OP(=S)(OC)OC)c(C(=O)OC)s1`: 71 °C; for `CC1(C)CCC(C)(C)c2cc(Br)c(O)cc21`: 90 to 94 °C. Next, `O=C(O)c1ccnc(-c2cccc3cc(Cc4cccc(C(F)(F)F)c4)sc23)c1`: 231 to 232 °C; `COc1ccc(N(CCCCCO)S(=O)(=O)c2c(F)c(F)c(F)c(F)c2F)cc1`: 96 to 97 °C; `OCc1sc(Cl)nc1C(F)(F)F`: 39 to 45 °C.

In turn, `c1ccc2c(c1)Cc1c(-c3ccc(OCCN4CCOCC4)cc3)n[nH]c1-2` registered a melting point of 175 to 176 °C. Next, `NC(=O)NC1CCN2CCc3ccccc3C2C1` (configuration not stated): 235 °C; `COc1ccnc(CCc2nc3cc(-c4ccco4)cnc3[nH]2)c1`: 147 to 148 °C. The same measure for `Cn1c([N+](=O)[O-])cnc1C(N)=S`: 148 to 150 °C; for `CCCOc1ccccc1-c1nc2ncccc2c(=O)[nH]1`: 110 to 111 °C. Take `CC(C)(C)CC(=O)c1ccc(O)c(Cl)c1Cl`: the melting point is 156 to 158 °C. Next, `O=C1c2ccc(Cl)cc2C(=O)N1c1ccc([N+](=O)[O-])cc1CI`: 183 to 187 °C. Next, `CC(C)(C)OC(=O)C1CCN(Sc2ccncc2)CC1`: 71 to 72 °C. In turn, `N#Cc1cc(-c2ccncn2)c[nH]c1=O` returned a melting point of over 250 °C. The molecule `COc1cc(OC)nc(NC(=O)NS(=O)(=O)c2ncccc2C(O)CF)n1` (configuration not stated) returned a melting point of 119 to 120 °C. Next, `CCCN(c1ncnc2[nH]cnc12)n1cccc1`: 181 to 183 °C. The same measure for `Cc1cc2c(nc1C(O)c1ccc(C(F)(F)F)cc1)CCCCC2` (configuration not stated): 131 to 133 °C; for `CC(C)CNC(=NC#N)Nc1cccnc1`: 148 to 149 °C; for `Cc1c(CO)sc2cc(Br)ccc12`: 95 to 96 °C. Next, `OC[C@@H](O)[C@@H](c1cccc(Br)c1)N1CCc2cccc(OCc3ccccc3)c21`: 61 to 66 °C; `COc1ccc(C)cc1NC(=O)Nc1ccc(N2CCN(C(=O)C3CCCCC3C)CC2)cc1` (configuration not stated): 208 to 209 °C; `COc1ccc(Cc2cc3c(cc2OC)OCO3)cc1`: 56 to 57 °C. As for `O=C(Oc1cc(-c2ccccc2)nc2ccccc12)N1CCOCC1`, the melting point was 127 °C. Molecule `O=C1CSc2nc(C34CC5CC(CC(C5)C3)C4)cn21` yielded a melting point of 130 to 132 °C. On to `CC(C)[C@H](N)C(=O)OCc1nc2c(N)nc3ccccc3c2n1CCCCNS(C)(=O)=O`, for which the melting point lay within 161 to 163 °C.

In turn, `N#CC1c2ccccc2C=Cc2ccccc21` returned a melting point of 102 to 104 °C. Turning to `Cc1ccc(-c2cncc(CN3CC=C(c4ccccc4)CC3)c2)cc1`, the melting point fell in the range of 133 to 135 °C. The same measure for `CCOc1ccc2cccnc2c1N`: 94 to 95 °C; for `CNC(=O)CCc1cn(Cc2ccc(C(=O)O)cc2OC)c2cc(C(=O)NCC3CCCC3)ccc12`: 274 to 275 °C. On to `CCOC(=O)C1C(=O)CC(C)(O)C(C(=O)OCC)C1c1cc(C)c2oc(C)c(C)c2c1` (configuration not stated), for which the melting point is 168 to 171 °C. The same measure for `Cc1c(NC(=O)c2ccc(OC[C@@H]3CCCO3)cc2)ccc2cc(CNC[C@H]3CCCO3)cnc12`: 92 to 94 °C. Consider `FC(F)(F)c1ccc2sc(C3=CCN(Cc4ccccc4)CC3)nc2c1`, for which the melting point was 124 to 125 °C. For `O=C(NC/C=C\COc1cc(CN2CCCCC2)ccn1)NC1CCC1`, the melting point fell in the range of 130 to 132 °C. As to `Cc1ccc2nc(-c3ccccc3Br)ncc2c1`, the melting point was 70 to 71 °C.

As to `Cc1nc(-c2ccc(C(=O)O)cc2)sc1C(=O)O`, the melting point is over 300 °C. The same measure for `CCNc1nc(N=[N+]=[N-])nc(NC(C)C(F)(F)F)n1` (configuration not stated): 69 to 75 °C.

Molecule `CO/N=C1\CCCC[C@@H]1NC(=O)c1cnc(O[C@@H](C)C(F)(F)F)c(-c2ccc(Cl)cc2)n1` yielded a melting point of 120 to 123 °C. `CCCCCCCCCCNC(=O)CC#N` gave a melting point of 78.5 to 80 °C. The same measure for `Cc1cccnc1-c1cc2cccnc2c(Cl)n1`: 130 to 131 °C. As to `COc1cc(C)ccc1-c1cc2ccccc2[nH]1`, the melting point stood at 125 °C. `COCCCn1nnnc1-c1cc(-c2ccccc2C(F)(F)F)c(O)cc1O` came in with a melting point of 207 to 210 °C. The molecule `COc1cc2c(cc1O[Si](C)(C)C(C)(C)C)CN(C(=O)OC(C)(C)C)CC2` yielded a melting point of 46 to 49 °C. Next, `CCc1cccc2c(S(=O)(=O)c3ccc(C)cc3)cnnc12`: 133 to 134 °C. Next, `N#Cc1ccc(C(O)Cc2ccc(C#N)cc2[N+](=O)[O-])cc1` (configuration not stated): 147 to 153 °C; `Oc1cccc(-c2noc3ncccc23)c1`: 175 to 178 °C.

Molecule `CCCCn1nnnc1-c1c(O)ccc(-c2cccc(C(=O)OC)c2)c1O` showed a melting point of 93 to 97 °C. The same measure for `O=C(O)c1cc(Cl)cc2c1O[C@@H]1C=CCC[C@H]21` (relative stereo): 147 to 150 °C; for `CCn1ncc2c3noc(-c4cccc(Cl)c4)c3cnc21`: 207 to 209 °C; for `COc1cc(OC)nc(Oc2c(Cl)cccc2C(=O)O)n1`: 151 to 152 °C. The same measure for `Cc1[nH]c2cc3c(cc2c1-c1ccccc1)C(C)(C)C=N3`: 233 to 235 °C; for `COc1nc2ccc(Br)cc2c2c1C(=O)c1ccccc1-2`: 208 to 210 °C; for `COc1cccc(-c2ccc3c(c2)C(C)(C)C(=O)N3)c1`: 157 to 158 °C. The same measure for `OC1CCN(CCCOc2ccc3cc(-c4n[nH]c5cc(-c6ccccc6)sc45)[nH]c3c2)CC1`: 239 to 242 °C; for `CC(C)Cc1ccc2ccc(N)nc2n1`: 125 to 127 °C; for `COC(=O)COc1ccc(Cc2ncc(C(F)(F)F)cc2Cl)c(Cl)c1Cl`: 110 to 111 °C. On to `COc1ccc(C2CSc3ccccc3NC2=O)cc1` (configuration not stated), for which the melting point was found to be 145 °C.

`O=C1CC(Cc2cccc(Cl)c2)CN1` (configuration not stated): the melting point lay within 117 to 119 °C. `O=[N+]([O-])c1cccc(/C=C/c2csc(C3CCC3)n2)c1`: the melting point was in the range of 112 to 115 °C.

For the origin of these results see a melting point compilation (Tetko et al.; mined from patent text by program, amines drawn as free bases though some values may be those of a salt).
